From US4895844A, “Indole alkaloid compositions and their methods of use” (Harbor Branch Oceanographic Institution, Inc., priority 1989, dated 1990)
In brackets after ≈: the same amount, converted by molar mass.

Assays:
Type in all cases: cell-based
[1] = tested on: P388 mouse leukemia cells; test: P388 mouse leukemia cell assay; details: 48 hours
Method: P388 MOUSE LEUKEMIA CELL ASSAY
P388 mouse leukemia cells are grown in Dulbecco MEM medium with 10% horse serum, 4 mM glutamine, and 20 ug/ml gentamycin (Biologos, Inc.). Cells are incubated in 10% CO2 and subcultured 2 times per week.
1. Add composition to each well of a 24-well plate or tube and allow solvent to evaporate to dryness.
2. Add 2 ml (1.2×10^5) cells to each well or tube and mix.
3. Incubate in 10% CO2 at 37° for 48 hours.
4. Read plates with an inverted microscope, scoring activity from 1+ to 4+ as follows: ND (not detectable), >90%; 1+, 75-90%; 2+, 50-74%; 3+, 25-49%; 4+, <25% of control growth. Alternatively, the activity may be designated as IC50 concentration which is the concentration of composition required to inhibit 50% of cell growth on the plate.
Cell counts are performed on each tube and results are reported as percent of control.

[2] = tested on: HCT-8 human colon tumor cells; test: Human tumor cell line assay, HCT-8 (colon); details: 120 hours, read-out: Activity at prescribed doses
Method: (§1) HUMAN TUMOR CELL LINE ASSAY
(§2) Maintenance of Cell Line HCT-8 human colon tumor cells are grown in RPMl 1640 medium (GIBCO). A-549 human lung carcinoma cells and MD-AMB-231 human breast cancer cells are cultured in Dulbecco medium (Biologos, Inc.). All media are supplemented with 10% fetal bovine serum and contain 50 ug/ml gentamycin. All human tumor cell lines are incubated at 5% CO2 at 37° and subcultured once a week. The seeding levels are 350,000 MCF-7 cells, 60,000 HCT-8 cells and 300,000 A-549 cells per T-25 Flask. Vinblastine is used as a positive control.
(§3) 2. Incubate in a CO2 -incubator for 48 hours.
(§4) 3. Add composition to each well and incubate for an additional 120 hours.
(§5) 4. Discard medium and stain with methylene blue (HCT-8) or crystal violet (A-549 and MD-AMB-231).
(§6) 5. Compare cell density of drug-treated well with that of the control (no drug added) as follows: ND (not detectable), >90%; 1+, 75-90%; 2+, 50-74%; 3+, 25-49%, 4+, >25% of control growth.

[3] = tested on: A-549 human lung carcinoma cells; test: Human tumor cell line assay, A-549 (lung); details: 120 hours, read-out: Activity at prescribed doses
Method: as §1, §2, §3, §4, §5, §6

[4] = tested on: MD-AMB-231 human breast cancer cells; test: Human tumor cell line assay, MD-AMB-231 (mammary); details: 120 hours, read-out: Activity at prescribed doses
Method: as §1, §2, §3, §4, §5, §6

IC50 [1]: 15 mg/L (≈ 25.7 µM)
SMILES: CN1CC(c2c[nH]c3c(Br)c(Br)cc(O)c23)NCC1c1c[nH]c2cc(Br)ccc12 (stereo not shown) [Biemnidin (1), biemnidin]
activity at 1 µg/mL ([2]; HCT-8, 1 μg/ml): > 90% | activity at 10 µg/mL ([2]; HCT-8, 10 μg/ml): > 25% | activity at 50 µg/mL ([2]; HCT-8, 50 μg/ml): > 25% | activity at 1 µg/mL ([3]; A549, A-549, 1 μg/ml): > 90% | activity at 10 µg/mL ([3]; A549, A-549, 10 μg/ml): > 25% | activity at 50 µg/mL ([3]; A549, A-549, 50 μg/ml): > 25% | activity at 1 µg/mL ([4]; MDA-MB-231, MD-AMB-231, 1 μg/ml): > 90% | activity at 10 µg/mL ([4]; MDA-MB-231, MD-AMB-231, 10 μg/ml): > 25% | activity at 50 µg/mL ([4]; MDA-MB-231, MD-AMB-231, 50 μg/ml): > 25%
